Laboratory results: US20250145600A1, “2-((4-((S)-2-(4-CHLORO-2-FLUOROPHENYL)-2-METHYLBENZO[D][1,3]DIOXOL-4-YL)PIPERIDIN-1-YL)METHYL)-1-(((S)-OXETAN-2-YL)METHYL)-1H-IMIDAZOLE DERIVATIVES AS ACTIVATORS OF THE GLP1 RECEPTOR FOR THE TREATMENT OF OBESITY” (Novartis AG, priority 2022, published 2025)

Biological target: human GLP1R (hGLP1R) (Homo sapiens, UniProt P43220)
Experiment: Human GLP1R cAMP agonist assay (GloSensor cAMP Assay)
Format: cell-based
Settings: HEK293-SNAP-hGLP1R-GloSensor cells
Method: Compounds of formula (I) according to the invention were tested in the following cellular assays that measure the intracellular cAMP concentration, beta-arrestin recruitment and receptor internalization. The cAMP is generated by the activation of GLP1R. The extent to which the GLP1R is internalized into the cell and away from the plasma membrane following activation is also shown in Table 2. EC50 for each assay is defined as the concentration of the compound that leads to half of the maximum response (after baseline correction). Emax is defined as the maximum response observed for the test compound, normalized to the maximum response observed for the endogenous ligand (GLP1(7-36)) to GLP1R.
Human GLP1R cAMP Agonist Assay
The agonist activity of compounds was determined using the GloSensor™ cAMP Assay (Promega Corp.), which measures changes in the intracellular concentration of cAMP after ligand activation of GPCRs. The assay uses a biosensor encoded by pGloSensor™-22F cAMP plasmid (Promega, cat #E2301) with cAMP binding domains fused to a mutant form of Photinus pyralis luciferase. Binding to cAMP causes conformational changes that promote large increases in light output, which can be measured by a luminescence detector. HEK293-SNAP-hGLP1R-GloSensor cells stably overexpressing the human GLP1 receptor (hGLP1R) and pGloSensor™-22F were seeded in white 384-well poly-D-Lysine coated plates (Greiner Bio One, cat #781945) in CO2-independent media (Gibco cat #18045-088 with 1.0% FBS, 2 mM L-glutamine, penicillin and streptomycin) and incubated overnight at 37° C., 5% CO2 with humidity. The assay was started the following morning by adding an equal volume of CO2-independent media containing 4% v/v dilution of the GloSensor substrate (Promega, cat #E1291) to all wells. The cell plate was incubated at rt for 2 h in the dark. The Biomek 7 (Beckman Coulter) instrument was used for the liquid handling steps. To generate duplicate dose response curves, 3-fold serially diluted compounds were added in to the cell assay plate to a final volume of 60 μL with final concentrations ranging from 30 μM through 0.06 μM in CO2-independent media containing 0.1% BSA, 0.5 mM IBMX and 0.4% DMSO. In the same plate and assay buffer as the tested compounds, were EC100 control wells containing GLP1 (7-36) peptide (Bachem, cat #H-6795) at a final concentration of 2 nM and also EC0 control wells containing no peptide. This plate was incubated at rt in the dark for 12 min after adding the compounds to the cells. Luminescence was then measured with an Envision 2104 Multilabel reader with “TRF Light Unit, 337 nm” (PerkinElmer) using the Ultra-Sensitive protocol setting “384-well US luminescence detector” with the 384-well luminescence aperture, 0.1 seconds per well. cAMP activity was calculated as percent of the GLP1 (7-36) EC100 control wells: [(sample signal−mean EC0 signal)/(mean EC100 of GLP1 (7-36) signal−mean EC0 signal)}*100. Curve fitting for EC50 determinations was performed in the Helios module of the software package DAVID. The 4-parameter logistic model, Hill slope was used: y=Ainf+(A0−Ainf)/(1+(x/AC50)^Hill Slope) where y is the functional response; x is the compound concentration; A0 is the minimum value (at 0 dose); Ainf is the maximum value (at infinite dose); AC50 corresponds to the point of inflection (i.e. the point on the sigmoid shaped curve halfway between A0 and Ainf). The EC50 value was represented by the AC50 value calculated from Helios in μM. Emax is the maximal activity detected within the concentration range, derived from the fitted curve.
327 μL of Opti-MEM medium (Gibco, cat #31985-062) were mixed with 12 μL of FuGENE® HD (Promega, cat #E2311) and incubated at rt for 5 min. Then 8.2 μL (4 μg, 0.485 μg/μL solution) of pSNAP-hGLP1R plasmid (Cisbio, cat #PSNAP-GLP1) encoding human GLP1R (NCBI Reference Sequence: NM_002062.3) fused with Cisbio's SNAP tag was added in to the Fugene HD/Opti-MEM mix, and incubated at rt for 20 min. […]

Sequence of human GLP1R (hGLP1R) (P43220 24-463): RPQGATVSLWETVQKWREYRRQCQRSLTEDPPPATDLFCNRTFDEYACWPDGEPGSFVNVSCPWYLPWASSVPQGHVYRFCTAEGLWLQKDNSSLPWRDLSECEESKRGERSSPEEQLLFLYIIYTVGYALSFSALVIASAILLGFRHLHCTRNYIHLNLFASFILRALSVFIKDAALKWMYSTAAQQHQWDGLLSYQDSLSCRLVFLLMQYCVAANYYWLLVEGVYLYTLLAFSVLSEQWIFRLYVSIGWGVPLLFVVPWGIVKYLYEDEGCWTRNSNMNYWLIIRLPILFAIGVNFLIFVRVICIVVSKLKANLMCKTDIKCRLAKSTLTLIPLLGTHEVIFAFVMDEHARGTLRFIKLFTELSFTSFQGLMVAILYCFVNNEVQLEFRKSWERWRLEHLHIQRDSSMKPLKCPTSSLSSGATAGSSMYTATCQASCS

Question: With `Cc1c(-c2ccc(C(=O)O)o2)nc(CN2CCC(c3cccc4c3O[C@@](C)(c3ccc(Cl)cc3F)O4)CC2)n1C[C@@H]1CCO1` [Compound C-24, 5-(2-((4-((S)-2-(4-chloro-2-fluorophenyl)-2-methylbenzo[d][1,3]dioxol-4-yl)piperidin-1-yl)methyl)-5-methyl-1-(((S)-oxetan-2-yl)methyl)-1H-imidazol-4-yl)furan-2-carboxylic acid] as the compound, how does the Emax (cAMP activity as percent of GLP1 (7-36) EC100 control) read?
Answer: The Emax was 113%.

Question: And the EC50 (intracellular cAMP, 12 min at rt)?
Answer: Its EC50 is 0.102 nM.
